According to patent US20140287048A1, “PASTE COMPRISING NON-STEROIDAL ANTI-INFLAMMATORY DRUG” (priority 2011, published 2014):

Test: in vivo
Settings: po

Cc1cnc(NC(=O)C2=C(O)c3ccccc3S(=O)(=O)N2C)s1 [meloxicam]
bioavailability: ~98%
